The Bradley open melting point set (2014)
“And” between values parts separate entries of the source, which are not always exact repeats. Equal values may be shown once.

Compound | melting point
CC(=O)c1ccc(C#N)cc1 [4-acetylbenzonitrile] | 58 °C
Nc1cn[nH]c1 [4-amino-1h-pyrazole] | 75 °C
N#Cc1cc(F)c(N)cc1F [4-amino-2,5-difluorobenzonitrile] | 93 °C
Cc1cc(N)nc(C)n1 [4-amino-2,6-dimethylpyrimidine] | 185 °C
NC(=O)c1ccc(N)cc1 [4-aminobenzamide] | 183 °C
Nc1ccc(C(=O)O)cc1 [4-aminobenzoic acid] | 188 °C
N#Cc1ccc(N)cc1 [4-aminobenzonitrile] | 85 °C
Cc1[nH]n(-c2ccccc2)c(=O)c1C(=O)c1ccccc1 [4-benzoyl-3-methyl-1-phenyl-5-pyrazolinone] | 91 °C
O=C(O)c1ccc(C(=O)c2ccccc2)cc1 [4-benzoylbenzoic acid] | 199 °C
OB(O)c1ccc(OCc2ccccc2)cc1 [4-benzyloxybenzeneboronic acid] | 196 °C
O=C1CN(C(=O)OCc2ccccc2)CCN1 [4-benzyloxycarbonyl-2-piperazinone] | 120 °C
Oc1ccc(OCc2ccccc2)cc1 [4-benzyloxyphenol] | 120 °C
[O-][n+]1ccc(OCc2ccccc2)cc1 [4-benzyloxypyridine n-oxide] | 174 °C
OB(O)c1ccc(Br)c(F)c1F [4-bromo-2,3-difluorobenzeneboronic acid] | 225 °C
Clc1cc(Br)ccc1I [4-bromo-2-chloro-1-iodobenzene] | 34 °C
Cc1cc(Br)ccc1N [4-bromo-2-methylaniline] [listing 1 of 2 here] | 52 °C
Cc1cc(Br)ccc1N [4-bromo-2-methylaniline] [listing 2 of 2 here] | 58 °C
Nc1ccc(Br)c(Cl)c1 [4-bromo-3-chloroaniline] | 64 °C
CC(C)(C)c1ccc(-c2ccc(Br)cc2)cc1 [4-bromo-4'-tert-butylbiphenyl] | 142 °C
O=Cc1ccc(Br)cc1 [4-bromobenzaldehyde] | 57 °C
NNC(=O)c1ccc(Br)cc1 [4-bromobenzhydrazide] | 168 °C
O=C(O)c1ccc(Br)cc1 [4-bromobenzoic acid] | 253 °C
O=C(O)c1ccc(Br)c(C(=O)O)c1 [4-bromoisophthalic acid] | 299 °C
CCOc1ccc(Br)cc1 [4-bromophenetole] | 4 °C
O=C(O)Cc1ccc(Br)cc1 [4-bromophenylacetic acid] | 117 °C
CSc1ccc(Br)cc1 [4-bromothioanisole] | 39 °C

Compound | melting point
CCCCc1ccc(C(=O)O)cc1 [4-butylbenzoic_acid] | 100 °C
OB(O)c1ccc(Cl)cc1C(F)(F)F [4-chloro-2-(trifluoromethyl)benzeneboronic acid] | 181 °C
COc1ccc(Cl)cc1I [4-chloro-2-iodoanisole] | 46 °C
COc1cc(Cl)ccc1O [4-chloro-2-methoxyphenol] | 17 °C
Cc1cc(Cl)cc([N+](=O)[O-])c1N [4-chloro-2-methyl-6-nitroaniline] | 122 °C
Cc1cc(C(=O)O)ccc1Cl [4-chloro-3-methylbenzoic acid] | 214 °C
COc1ccc(Cl)c([N+](=O)[O-])c1 [4-chloro-3-nitroanisole] | 44 °C
N#Cc1ccc(Cl)c([N+](=O)[O-])c1 [4-chloro-3-nitrobenzonitrile] | 100 °C
Clc1cc(N2CCCC2)ncn1 [4-chloro-6-(1-pyrrolidinyl)pyrimidine] | 97 °C
CCc1nc(N)nc(Cl)c1C [4-chloro-6-ethyl-5-methylpyrimidin-2-amine] | 139 °C
ON=C(Cl)c1ccc(Cl)cc1 [4-chloro-N-hydroxybenzenecarboximidoyl chloride] | 278 °C
O=Cc1ccc(Cl)cc1 [4-chlorobenzaldehyde] | 46 °C and 48.5 °C and 47 °C
N#Cc1ccc(Cl)cc1 [4-chlorobenzonitrile] | 92 °C
Clc1ccc(C(Cl)(Cl)Cl)cc1 [4-chlorobenzotrichloride] | 6 °C
FC(F)(F)c1ccc(Cl)cc1 [4-chlorobenzotrifluoride] | -36 °C
OCc1ccc(Cl)cc1 [4-chlorobenzyl alcohol] | 71 °C
N#CCc1ccc(Cl)cc1 [4-chlorobenzyl_cyanide] | 31 °C
Clc1ccc(-c2ccccc2)cc1 [4-chlorobiphenyl] | 78 °C
O=[N+]([O-])c1ccc(Cl)cc1 [4-chloronitrobenzene] | 83.5 °C
O=C(O)Cc1ccc(Cl)cc1 [4-chlorophenylacetic acid] | 105 °C
Oc1ccc(Cl)c(O)c1 [4-chlororesorcinol] | 107 °C
OC1CCOc2ccccc21 (stereo unspecified) [4-chromanol] | 40 °C
CCCCCCCc1ccc(-c2ccc(C#N)cc2)cc1 [4-cyano-4'-n-heptylbiphenyl] | 31 °C
N#Cc1ccc(C(N)=O)cc1 [4-cyanobenzamide] | 227 °C
N#Cc1ccc(N=C=S)cc1 [4-cyanophenyl isothiocyanate] | 120 °C
Nc1ccc(C2CCCCC2)cc1 [4-cyclohexylaniline] | 54 °C

Compound | melting point
OB(O)c1ccc(C2CCCCC2)cc1 [4-cyclohexylbenzeneboronic acid] | 220 °C
CCN(CC)c1ccc(C=NO)cc1 [4-diethylaminobenzaldoxime] | 96 °C
CN(C)c1ccc(/C=C/C=O)cc1 [4-dimethylamino cinnamaldehyde] | 136 °C
CN(C)c1ccc(C=O)cc1 [4-dimethylaminobenzaldehyde] | 74.5 °C
CCOc1ccc(C=O)cc1 [4-ethoxybenzaldehyde] | 14 °C
CCOc1ccc(C#N)cc1 [4-ethoxybenzonitrile] | 62 °C
CCC1=C(C)N=NC1C (stereo unspecified) [4-ethyl-3,5-dimethyl-1H-pyrazole] | 43 °C
CCc1ccc(B(O)O)cc1 [4-ethylbenzeneboronic acid] | 152 °C
CCc1ccc(O)cc1 [4-ethylphenol] | 47 °C
CCc1ccc(OCC(=O)O)cc1 [4-ethylphenoxyacetic acid] | 93 °C
N#Cc1ccc(F)cc1[N+](=O)[O-] [4-fluoro-2-nitrobenzonitrile] | 71 °C
O=[N+]([O-])c1cc(F)ccc1O [4-fluoro-2-nitrophenol] | 75 °C
Cc1cc(N)ccc1F [4-fluoro-3-methylaniline] | 34 °C
Cc1cc(CC(=O)O)ccc1F [4-fluoro-3-methylphenylacetic acid] | 106 °C
O=S(=O)(Cl)Cc1ccc(F)cc1 [4-fluoro-alpha-toluenesulfonyl chloride] | 60 °C
OB(O)c1ccc(F)cc1 [4-fluorobenzeneboronic acid] | 263 °C
O=S(=O)(Cl)c1ccc(F)cc1 [4-fluorobenzenesulfonyl chloride] | 37 °C
N#Cc1ccc(F)cc1 [4-fluorobenzonitrile] | 36 °C
O=C(Cl)c1ccc(F)cc1 [4-fluorobenzoyl chloride] | 10 °C
N#CCS(=O)(=O)c1ccc(F)cc1 [4-fluorophenylsulfonylacetonitrile] | 91 °C
O=C(O)c1ccc(F)cc1O [4-fluorosalicylic acid] | 188 °C
O=Cc1ccc(B(O)O)cc1C(F)(F)F [4-formyl-3-(trifluoromethyl)benzeneboronic acid] | 201 °C
O=CN1CCOCC1 [4-formylmorpholine] | 22 °C
O=Cc1ccc(OCC(=O)O)cc1 [4-formylphenoxyacetic acid] | 196 °C
COc1cc(C#N)ccc1O [4-hydroxy-3-methoxybenzonitrile] | 87 °C
COc1cc(CO)ccc1O [4-hydroxy-3-methoxybenzyl alcohol] | 114 °C

Compound | melting point
O=[N+]([O-])c1ccc(/C=C/c2ccc(O)cc2)cc1 [4-hydroxy-4'-nitrostilbene] | 207 °C
Oc1ccnc2ccc(C(F)(F)F)cc12 [4-hydroxy-6-(trifluoromethyl)quinoline] | 267 °C
CC(=O)c1ccc(O)cc1 [4-hydroxyacetophenone] | 108 °C
O=C(O)Cc1ccc(O)cc1 [4-hydroxyphenylacetic acid] | 152 °C
COc1ccc(I)cc1 [4-iodoanisole] | 50 °C
N#Cc1ccc(I)cc1 [4-iodobenzonitrile] | 126 °C
Cc1ccc(I)cc1 [4-iodotoluene] | 34 °C
CC(C)c1ccc(O)cc1 [4-isopropylphenol] | 60 °C
COc1ccc(N)c(C)c1 [4-methoxy-2-methylaniline] | 14 °C
COc1ccc(N)c([N+](=O)[O-])c1 [4-methoxy-2-nitroaniline] | 127 °C
COc1c(C)cc(B(O)O)cc1C [4-methoxy-3,5-dimethylbenzeneboronic acid] | 237 °C
COc1ccc(C(=O)O)cc1[N+](=O)[O-] [4-methoxy-3-nitrobenzoic acid] | 188 °C
COc1ccc(C=O)cc1 [4-methoxybenzaldehyde] | 1 °C
COc1ccc(C(N)=O)cc1 [4-methoxybenzamide] | 166 °C
COc1ccc(CN)cc1 [4-methoxybenzylamine] | -10 °C
COc1ccc(O)cc1 [4-methoxyphenol] | 56 °C
COc1cc[n+]([O-])cc1 [4-methoxypyridine n-oxide] | 102 °C
CCCCCCCCOc1ccc(NC(=O)c2ccc(C)cc2)cc1 [4-methyl-N-[4-(octyloxy)phenyl]benzamide] | 141 °C
Cc1ccc(CO)cc1 [4-methylbenzyl_alcohol] | 61 °C
Cc1ccc(O)c(O)c1 [4-methylcatechol] | 68 °C
Cc1ccc(Cc2ccccc2)cc1 [4-methyldiphenylmethane] | 5 °C
CC(=O)OCC1OC(Oc2ccc(C)cc2)C(OC(C)=O)C(OC(C)=O)C1OC(C)=O (stereo unspecified) [4-methylphenyl 2,3,4,6-tetra-O-acetylhexopyranoside] | 126 °C
Cc1cc[n+]([O-])cc1C#N [4-methylpyridine-3-carbonitrile 1-oxide] | 185 °C
